For orientation: Cmax means the highest concentration seen after dosing.

This is an account of results in article PMC6949133, “Application of a novel regulatable Cre recombinase system to define the role of liver and gut metabolism in drug oral bioavailability” (The Biochemical journal, 2015).

For data set [1], the system named is P450. Description: P450-mediated substrate turnover in liver of treated ERL mice. The format is in vivo, mouse. As to conditions: 3MC 40 mg/kg, n=6. How it is done: (§1) The low levels of cytochrome c reduction detected in the small intestine were further decreased (by 78%) in ERL animals treated with 40 mg/kg 3MC (36.2 ± 15.6 compared with 8.2 ± 3.3 nmol cytochrome c reduced/min/mg respectively, n = 3, mean + S.D., P < 0.01). No P450 activity was detected in small intestinal microsomes from either WT or ERL animals.

For data set [2], the system named is POR. Description: POR activity in microsomes of treated ERL mice, cytochrome c reduction. The format is in vivo, mouse. How it is done: as §1
Data set [3] deals with POR. Description: POR expression by Western blot/densitometry in tissues of ERL mice after Cyp1a1 inducer. Format: in vivo, mouse. How it is done:
(§2) Single doses of βNF (80 mg/kg body weight as a suspension in corn oil) were administered intraperitoneally (i.p.). Doses of 3MC between 0.5 and 40 mg/kg body weight (single injections) were administered i.p. in corn oil; in some experiments, three daily doses were administered, as detailed in the Figure legends. Mice were killed at the same time of day by a rising concentration of CO2 9 or 14 days after dosing and the following tissues removed and snap-frozen in liquid nitrogen: liver, lung, kidney, small intestine, large intestine, spleen and skin. Samples were then stored at − 80°C until processing for sub-cellular fractions.
Microsomal fractions were prepared as described previously and stored at − 70°C until required. Microsomal protein concentrations were determined using the Bio-Rad Protein Assay Reagent (Bio-Rad Laboratories) and Western blot analysis was preformed as described previously using polyclonal antisera to rat P450s and POR [27, 28]. Immunoreactive proteins were detected using horseradish peroxidase (HRP)-conjugated polyclonal goat anti-rabbit, anti-mouse or anti-sheep immunoglobulin secondary antibodies, as appropriate (Dako). Bands were visualized using Immobilon™ chemiluminescent HRP-conjugated substrate (Millipore) and a FUJIFILM LAS-3000 mini imaging system (Fujifilm UK.). Densitometric analysis was performed using Multi Gauge V2.2 software (Fujifilm UK).
On the technique in general: Immunoblotting shows a protein as a band on a membrane.

Data set [4] is described as follows: Tolerability and gross liver phenotype of ERL mice after inducer dosing. Format: in vivo, mouse. How it is done:
as §2
The effects of a single dose of the polycyclic aromatic hydrocarbon AhR ligand βNF (80 mg/kg i.p.) on ERL mice were investigated in initial range-finding experiments (Figure 2A). Liver and small intestine tissues were harvested 9 or 14 days after dosing. […] On post mortem examination, βNF treated ERL mice had pale, mottled, enlarged livers which weighed approximately 60% more than those of either corn oil treated ERL mice or βNF treated WT animals. This phenotype is characteristic of POR deletion and is also observed in HRN and RCN animals. The effect on POR expression in the ERL liver and small intestine of a single dose of βNF (80 mg/kg i.p.) was similar to that observed in RCN mice following four daily doses (compare Figure 2A with Figure 1 of Finn et al.).
Both ERL and WT animals lost weight in response to this treatment.

Data set [5] is described as follows: In vivo pharmacokinetics of probe drugs in WT and ERL (POR-deleted) mice, blood LC-MS/MS. As to conditions: for Cl / Cmax: mean ± S.D., n=3; for Cmax: po. How it is done:
WT and ERL mice (n = 3) were pre-treated with corn oil or 3MC (4 or 40 mg/kg). A single dose of midazolam (5 mg/kg p.o.), or nelfinavir (50 mg/kg p.o.) or paroxetine (10 mg/kg p.o.) was administered on day 14 after 3MC treatment. Whole blood (10 μl) was taken from the tail vein at timed intervals after drug administration and transferred into a tube containing heparin (10 μl, 15 IU/ml).
For midazolam analysis, internal standard solution (10 μl; 500 ng of caffeine and 500 ng of resorpine) was added and proteins were precipitated using methanol (75 μl), followed by 8% sulfosalicylic acid (55 μl). Samples were mixed for 1 min and centrifuged at 13 000 g for 5 min. The supernatant was analysed for midazolam and the two internal standards by LC–MS/MS, as described previously. Standard curves were constructed by spiking blank blood samples with known amounts of midazolam. Extraction and protein precipitation were carried out as outlined above for the test samples.
For nelfinavir and paroxetine analysis, mouse blood extraction was performed by a method based on protein precipitation using acetonitrile containing sulfadimethoxine (100 ng/ml) as internal standard. Samples were vortex mixed for 1 min followed by centrifugation at 2800 g for 10 min. Supernatants were analysed by UPLC–MS/MS using a Xevo TQs mass spectrometer (Waters). Nelfinavir, paroxetine and sulfadimethoxine were separated on an Acquity UPLC BEH C18 column (1.7 μm particle size, 50 × 2.1 mm i.d.) by gradient elution with acetonitrile and water at a flow rate 0.6 ml/min. The cycle time of each analysis was 3 min. Matrix effects were assessed by dilution. Quantification of the analytes was performed in electrospray positive ionization mode using multiple reaction monitoring.
Pharmacokinetic parameters were calculated using WinNonLin software, version 3.1. A simple non-compartmental model was used to calculate the area under the curve (AUC), terminal half-life, Cmax and clearance. Statistical analysis of pharmacokinetic data was carried out using Student’s t tests.

Data set [6] concerns PhIP-DNA adducts in the colon. Also noted: method as in PMID 21940903. As to conditions: RCN mice dosed orally with PhIP 2 weeks after 3MC, compared with PhIP alone; cited from earlier work.
Setting [7] is: liver and gut POR deletion compared with WT/control.
Where [8] appears, read: liver only POR deletion relative to control.

Regarding `Cc1ccc2cc3c(ccc4ccccc43)c3c2c1CC3` [3MC, 3-methylcholanthrene], in data set [1], the “reduction in P450-mediated turnover of 7-benzyloxy-4-(trifluoromethyl)-coumarin” value turned out to be 95% and the “reduction in P450-mediated turnover of methoxyresorufin” value was 70%. For the same molecule, the “decrease of cytochrome c reduction in small intestine” value in data set [2] (ERL animals treated with 40 mg/kg 3MC) worked out at 78%. The “hepatic POR activity as % of WT” value in data set [2] (livers from ERL mice 14 days after 3MC 40 mg/kg) is recorded as “approximately 4%”. Further, in data set [2] (livers from ERL mice 14 days after 3MC 40 mg/kg, n=3, mean ± S.D., WT 60.3 ± 20.8), the “hepatic POR activity (cytochrome c reduction)” value was 2.2 ± 1.9 nmol cytochrome c reduced/min/mg. Further, the “cytochrome c reduction in small intestine” value in data set [2] (small intestine of ERL animals treated with 40 mg/kg 3MC, n=3, mean ± S.D., comparator 36.2 ± 15.6) is on record as 8.2 ± 3.3 nmol cytochrome c reduced/min/mg. In addition, the “residual hepatic POR expression (densitometric quantification)” value in data set [3] (ERL mice, 3MC 40 mg/kg i.p., results not shown) was less than 4%. The “single dose required for knockdown in both liver and small intestine” value in data set [3] (ERL mice, i.p.) is 20 to 40 mg/kg. Also, the “single dose for knockdown of hepatic POR expression” value in data set [3] (ERL mice, i.p., liver only) amounted to 4 mg/kg. Further, the “POR knockdown in large intestine” value in data set [3] (ERL mice, three daily doses of 3MC 40 mg/kg/day i.p., harvested 14 days after initial dose) is given as 50%. For the same molecule, the “dose needed to knockdown POR in liver of ERL mice, lower than in RCN animals” value in data set [3] (ERL vs RCN animals (ref 20)) came out at 10 fold. Besides, the “increase in liver weight” value in data set [4] (single dose 3MC 40 mg/kg i.p., post mortem) is recorded as 60–90%.

On to `Cc1ncc2n1-c1ccc(Cl)cc1C(c1ccccc1F)=NC2` [Midazolam, midazolam], for which the Cl in data set [5] (Control (WT + corn oil), single p.o. dose nelfinavir 50 mg/kg, paroxetine 10 mg/kg or midazolam 5 mg/kg) is 113 ± 35 mL/min/kg; in data set [5] (Liver and gut null (ERL + 3MC 40 mg/kg, day 14), single p.o. dose nelfinavir 50, paroxetine 10 or midazolam 5 mg/kg), 4.3 ± 0.9^••◦ ml/min/kg; in data set [5] (Liver null (ERL + 3MC 4 mg/kg, day 14), single p.o. dose nelfinavir 50, paroxetine 10 or midazolam 5 mg/kg), 13 ± 5 mL/min/kg. For the same molecule, the Cmax in data set [5] (ERL (Por^lox/lox/Cre^Cyp1a1-KI), mouse, in vivo, Liver and gut null (ERL + 3MC 40 mg/kg, day 14), single p.o. dose nelfinavir 50, paroxetine 10 or midazolam 5 mg/kg) was 4460 ± 1530 ng/mL; in data set [5] (ERL (Por^lox/lox/Cre^Cyp1a1-KI), mouse, in vivo, Liver null (ERL + 3MC 4 mg/kg, day 14), single p.o. dose nelfinavir 50, paroxetine 10 or midazolam 5 mg/kg) it was 1850 ± 340 ng/mL; in data set [5] (WT (Por^lox/lox), mouse, in vivo, Control (WT + corn oil), single p.o. dose nelfinavir 50 mg/kg, paroxetine 10 mg/kg or midazolam 5 mg/kg), 610 ± 110 ng/mL. Moreover, the “increase in AUC” value is listed as 22.9 fold in data set [5] (setting [7]) and 9 fold in data set [5] (setting [8]). Besides, the figures for the “increase in Cmax” value in data set [5] (setting [7]) and in data set [5] (setting [8]) were 7.3 fold and 3 fold, respectively. In data set [5] (setting [7]), this molecule displayed an increase in half-life of 1.6 fold. The decrease in clearance in data set [5] (liver and gut POR deletion relative to control) amounted to 26.3 fold; in data set [5] (setting [8]), 9 fold.

`Fc1ccc([C@@H]2CCNC[C@H]2COc2ccc3c(c2)OCO3)cc1` [Paroxetine, paroxetine]: the increase in half-life in data set [5] (ERL (Por^lox/lox/Cre^Cyp1a1-KI), control: WT (Por^lox/lox), mouse, in vivo) worked out at 3.5 fold. Also, in data set [5] (mouse, in vivo), the “change in Cmax” value is on record as “essentially unchanged”, the decrease in clearance is ~ 3 fold and the “increase in AUC” value was 1.5 fold.

As for `Cn1c(N)nc2ncc(-c3ccccc3)cc21` [PhIP, 2-amino-1-methyl-6-phenylimidazo[4,5-b]pyridine], in data set [6], the “reduction of adduct formation in the colon” value is 50%.

Turning to `O=c1cc(-c2ccccc2)oc2ccc3ccccc3c12` [βNF, β-naphthoflavone], the “body weight loss over the course of the treatment” value in data set [4] (single dose βNF 80 mg/kg i.p.) fell in the range of 2 to 4 g. Further, in data set [4] (single dose βNF 80 mg/kg i.p., 9 or 14 days), the “increase in liver weight vs corn oil treated ERL or βNF treated WT” value was “approximately 60%”.
